Results taken from patent US5541213A, “Propenoic acid derivatives diazole propenoic acid compounds which have useful pharmaceutical utility” (Eisai Co., Ltd., priority 1993, dated 1996).

What was measured:
[1] = tested on: Fisher 344 male rats (glycerol-induced renal trouble model); test: Activity against glycerol-induced renal trouble model; format: in vivo, rat; conditions: 0.3 mg/5 ml/kg orally 60 minutes before 50% glycerol i.m. 10 ml/kg, blood sampled after about 24 hours
Experimental: Fisher 344 male rats aged 8 weeks and weighing 200 to 230 g were kept without water for 18 hours prior to the use. Thereafter, the test compound was orally administered forcedly to the test group of rats in an amount of 0.3 mg/5 ml/kg, while a solvent [2% Tween 80 solution] to the control group of rats in an amount of 5 ml/kg. After 60 minutes from the administration of the test compound or solvent, a 50% solution of glycerol in physiological saline was intramuscularly administered to each rat through both left and right femoral muscles in an amount of 10 ml of kg. After the completion of the intramuscular administration, the rats were watered. After about 24 hours, the rats were etherized and blood was sampled from each rat. The blood samples thus prepared were each centrifuged to collect serum, which was analyzed for urea nitrogen and creatinine.

[2] = tested on: Fisher 344 male rats (cisplatin-induced trouble model); test: Activity against cisplatin-induced gastric trouble model; format: in vivo, rat; conditions: cisplatin 6 mg/5 ml/kg s.c., 1 mg/5 ml/kg orally, repeated over four days, blood sampled on the fifth day
Experimental: Cisplatin was subcutaneously administered to Fisher 344 male rats aged 7 weeks and weighing 170 to 200 g in an amount of 6 mg/5 ml/kg. Immediately after the administration, the test compound was orally administered forcedly to the test group of rats in an amount of 1 mg/5 ml/kg, while a solvent (2% Tween 80 solution) to the control group of rats in an amount of 5 ml/kg. Six hours after the administration, the administration of the test compound and the solvent to the test group and the control group respectively was conducted in a similar manner to that described above. Thereafter, the same administration was repeated on the next day twice, and on the third and forth days each once. On the fifth day, the rats were etherized and blood was sampled from each rat. The blood samples thus prepared were analyzed for serum urea nitrogen and creatinine.

Fisher male rats = test: Diuretic activity; format: in vivo, rat; conditions: 1 mg/25 ml/kg orally in 0.4% Tween 80 in physiological saline; urine collected for 2 hours
Experimental: Fisher male rats aged 8 weeks and weighing 190 to 210 g were fasted for 18 hours prior to the use. The test compound was orally administered forcedly to the test group of rats in a state dispersed in a 0.4% solution of Tween 80 in physiological saline in an amount of 1 mg/25 ml/kg, while a 0.4% solution of Tween 80 in physiological saline to the control group of rats in the same amount as that administered to the test group. Immediately after the administration, the rats were put in individual metabolism cages respectively to collect urine from each rat for 2 hours. The urinary volume of each rat was determined and thereafter the urine was examined for uric acid concentration to calculate the amount of uric acid egested. The control group was composed of six rats, while the test group three rats. The amounts of uric acid excreted from the rats of each group were averaged out to determine the increment of the excretion of uric acid based on the averages.

[3] = target: T1, right atrium of Hartley male guinea pigs (heart rate lowering effect of adenosine) (Cavia porcellus, UniProt P47745); test: Adenosine antagonism (heart rate lowering effect of adenosine in isolated right atrium); format: cell-based; conditions: guinea pig right atrium, 37° C., dipyridamole added, 20 minutes with test compound, adenosine added cumulatively; spontaneous heart rate; read-out: pA2 value (adenosine antagonism) (converted)
T1 construct: the right atrium was extirpated from the heart; from tissue; host or cells: isolated right atrium of Hartley male guinea pigs
T1 sequence (P47745 1-326): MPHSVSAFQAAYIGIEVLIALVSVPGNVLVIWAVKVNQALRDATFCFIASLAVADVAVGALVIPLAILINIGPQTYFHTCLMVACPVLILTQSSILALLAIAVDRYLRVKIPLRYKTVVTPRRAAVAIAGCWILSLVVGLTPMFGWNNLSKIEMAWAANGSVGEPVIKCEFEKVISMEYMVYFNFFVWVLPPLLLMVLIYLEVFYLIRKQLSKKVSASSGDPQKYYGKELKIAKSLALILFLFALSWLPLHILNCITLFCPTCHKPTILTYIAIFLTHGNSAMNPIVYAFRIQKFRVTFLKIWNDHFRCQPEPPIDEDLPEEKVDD
Experimental: Hartley male guinea pigs weighing 250 to 400 g were beaten to death. The heart was immediately extirpated from each guinea pig and put in the Krebs-Heuseleit solution saturated with a gas mixture comprising 95% of oxygen and 5% of carbon dioxide. Thereafter, the right atrium was extirpated from the heart. The samples thus preparer were each vertically suspended in a Magnus tube (capacity: 6 ml) filled with a nutrient liquid at 37° C. and the same gas mixture as that used above was passed through the tube.
The change in tension was isometrically determined under a load of about 0.5 g and the spontaneous heart rate was measured and recorded with a cardiotachometer by utilizing the signal of the change as a trigger.
After the stabilization of the sample, 10^-5 mol of dipyridamole was added to each Magnus tube. Thereafter, the test compound was added directly to each of the Magnus tubes of the test group in a state dissolved in DMSO, while a solvent (DMSO) to each of the Magnus tubes of the control group in the same amount as that added to each Magnus tube of the test group. The resulting Magnus tubes was allowed to stand for 20 minutes. […]
The EC50 value with respect to the heart rate lowering effect of adenosine was calculated and the adenosine antagonism was represented by pA2 value (-log M).

SMILES: O=C(/C=C/c1c[nH]nc1-c1cccc(F)c1)NC(Cc1ccccn1)c1cc(Cl)ccn1 (single isomer, unassigned; (+)) [Example 2, (+)-(E)-N-{1-(4-Chloropyridin-2-yl)-2-(pyridin-2-yl)ethyl}-3-{3-(3-fluorophenyl)-1H-pyrazol-4-yl}-2-propenamide]
- serum creatinine ([1]; *P < 0.05 vs control (4.76 ± 0.21)): 3.47 ± 0.30 mg/dL
- Serum urea nitrogen ([1]; *P < 0.05 vs control (185.4 ± 3.2)): 142.4 ± 10.5 mg/dL
- serum creatinine ([2]; *P < 0.05 vs control (2.15 ± 0.16)): 1.49 ± 0.04 mg/dL
- Serum urea nitrogen ([2]; *P < 0.05 vs control (93.4 ± 6.5)): 52.9 ± 2.3 mg/dL
- amount of uric acid excreted (control group taken as 100%) (Fisher male rats): 166%
- urinary volume of the test group (control group taken as 100%) (Fisher male rats): 605%
- Kb [3]: 0.0389 nM
